Our source for the GI50 and TGI values is PubChem BioAssay (NCI).

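Tested at 5 concentrations; 48 h exposure; 96-well plates; endpoints linearly interpolated, else capped at highest concentration. GI50 is the concentration that inhibits growth by half. At the TGI there is no net growth.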

Test systems include A549 NSCLC; HCT-15 colon; K-562 leukemia; NCI-H226 lung; OVCAR-4 ovarian; OVCAR-5 ovarian; SK-MEL-5 melanoma; SNB-19 CNS; SNB-75 CNS; U251 CNS.
Common to all, as to experiment: NCI-60 cell line screen, 48 h

As to `CCN1C(=O)N(CC)C2C1NN=c1s/c(=C\c3ccc(OC)cc3)c(=O)n12` (centres undefined), the GI50 with A549 NSCLC is 0.247 µM; in the assay with HCT-15 colon it was 0.104 µM; in the assay on K-562 leukemia, 0.053 µM; in the assay on NCI-H226 lung, 1.72 µM; with OVCAR-4 ovarian, 0.614 µM; in the assay with OVCAR-5 ovarian, 0.474 µM. Besides, the GI50 was 0.192 µM with SK-MEL-5 melanoma, 0.471 µM with SNB-19 CNS, 0.0442 µM with SNB-75 CNS and 0.244 µM with U251 CNS. Also, the TGI in the assay on A549 NSCLC is > 100 µM; with HCT-15 colon, > 100 µM; in the assay on K-562 leukemia, > 100 µM; with OVCAR-4 ovarian it was > 100 µM; in the assay with OVCAR-5 ovarian, > 100 µM; in the assay on SK-MEL-5 melanoma, 1.64 µM. In addition, the figures for the TGI in the assay on SNB-19 CNS, with SNB-75 CNS and with U251 CNS were > 100 µM, 2.84 µM and > 100 µM, respectively.

In the case of `CCCCC(C(=O)CCC(=O)Nc1ccc(Cl)cc1)C(=O)C(C)C` (centres undefined), the TGI with A549 NSCLC, with HCT-15 colon, in the assay on K-562 leukemia, in the assay on NCI-H226 lung, in the assay on OVCAR-4 ovarian and with OVCAR-5 ovarian was > 100 µM each time. Further, the TGI with SK-MEL-5 melanoma, with SNB-19 CNS, in the assay with SNB-75 CNS and with U251 CNS was > 100 µM each time.

On to `O=C1NC(=O)C(c2c[nH]c3ccccc23)=C1c1ccccc1`, for which the GI50 is > 25 µM with A549 NSCLC; > 25 µM in the assay with HCT-15 colon; > 25 µM in the assay on K-562 leukemia; > 20.1 µM with NCI-H226 lung; > 25 µM in the assay with OVCAR-4 ovarian; > 25 µM in the assay on OVCAR-5 ovarian. The GI50 was > 25 µM in the assay on SK-MEL-5 melanoma, > 25 µM with SNB-19 CNS, 10.3 µM in the assay on SNB-75 CNS and > 25 µM with U251 CNS. Also, the TGI in the assay with A549 NSCLC, in the assay on HCT-15 colon, in the assay with K-562 leukemia, in the assay on NCI-H226 lung, with OVCAR-4 ovarian and with OVCAR-5 ovarian was > 25 µM throughout. In addition, the TGI with SK-MEL-5 melanoma, with SNB-19 CNS, in the assay on SNB-75 CNS and in the assay with U251 CNS was > 25 µM throughout.

On to `Oc1cccc(-c2nc(-c3ccccc3)[nH]c2-c2ccncc2)c1`, for which the GI50 in the assay with A549 NSCLC is 14.6 µM; with HCT-15 colon it was 7.36 µM; in the assay with K-562 leukemia, 11.7 µM; in the assay with NCI-H226 lung it was > 19 µM; in the assay on OVCAR-4 ovarian, 10.5 µM; with OVCAR-5 ovarian, 16.9 µM. Further, the GI50 in the assay on SK-MEL-5 melanoma was 3.59 µM; with SNB-19 CNS it was > 25 µM; in the assay on SNB-75 CNS it was 9.93 µM; in the assay with U251 CNS, 17.1 µM. Moreover, the TGI in the assay on A549 NSCLC is > 25 µM; in the assay with HCT-15 colon, > 20.3 µM; in the assay on K-562 leukemia it was > 25 µM; in the assay with NCI-H226 lung, > 25 µM; in the assay with OVCAR-4 ovarian, > 25 µM; in the assay on OVCAR-5 ovarian, > 25 µM. The TGI is 14.7 µM with SK-MEL-5 melanoma, > 25 µM in the assay with SNB-19 CNS, > 23.7 µM in the assay on SNB-75 CNS and > 25 µM in the assay on U251 CNS.

Turning to `CCCc1n(Cc2ccc3ccccc3n2)cc[n+]1Cc1ccc2ccccc2n1`, the GI50 is 7.73 µM with A549 NSCLC; 37.9 µM in the assay on HCT-15 colon; 0.72 µM in the assay with K-562 leukemia; 3.26 µM in the assay with NCI-H226 lung; 0.445 µM in the assay with OVCAR-4 ovarian; 3.72 µM in the assay on OVCAR-5 ovarian. Also, the GI50 in the assay with SK-MEL-5 melanoma is 0.866 µM; in the assay on SNB-19 CNS, 1.13 µM; in the assay on SNB-75 CNS it was 1.46 µM; with U251 CNS it was 1.51 µM. The TGI with A549 NSCLC is > 100 µM; in the assay with HCT-15 colon, > 100 µM; with K-562 leukemia, 15.9 µM; in the assay on NCI-H226 lung, 26.2 µM; in the assay with OVCAR-4 ovarian it was 18.3 µM; with OVCAR-5 ovarian it was 34.2 µM. The TGI in the assay with SK-MEL-5 melanoma was 2.36 µM; with SNB-19 CNS it was 13.2 µM; with SNB-75 CNS, 8.7 µM; with U251 CNS, 12.3 µM.

`N[C@@H](CSSC[C@H](N)C(=O)N1CCn2cc(-c3ccccc3)nc2[C@@H]1CC1CCCCC1)C(=O)N1CCn2cc(-c3ccccc3)nc2[C@@H]1CC1CCCCC1`: the GI50 was 1.37 µM in the assay on A549 NSCLC; 1.82 µM in the assay with HCT-15 colon; 1.48 µM in the assay on K-562 leukemia; 2.02 µM in the assay with NCI-H226 lung; 2.15 µM in the assay on OVCAR-4 ovarian; 2.23 µM in the assay with OVCAR-5 ovarian. Further, the GI50 in the assay on SK-MEL-5 melanoma is 0.361 µM; in the assay on SNB-19 CNS, 1.36 µM; in the assay on SNB-75 CNS, 1.79 µM; in the assay with U251 CNS, 1.37 µM. Besides, the TGI in the assay with A549 NSCLC is 3.05 µM; in the assay with HCT-15 colon, 3.71 µM; in the assay on K-562 leukemia, > 100 µM; with NCI-H226 lung, 4.09 µM; in the assay with OVCAR-4 ovarian it was 4.8 µM; in the assay with OVCAR-5 ovarian it was 6.39 µM. The TGI worked out at 1.53 µM with SK-MEL-5 melanoma, 2.85 µM in the assay with SNB-19 CNS, 3.3 µM with SNB-75 CNS and 2.76 µM in the assay on U251 CNS.

With `CCCCCCSc1nc(COC(=O)NC)c(COC(=O)NC)n1C`, the TGI in the assay with A549 NSCLC, in the assay with HCT-15 colon, with K-562 leukemia, in the assay on NCI-H226 lung, with OVCAR-4 ovarian and with OVCAR-5 ovarian was > 100 µM in each case. Also, the TGI in the assay with SK-MEL-5 melanoma, in the assay with SNB-19 CNS, in the assay on SNB-75 CNS and in the assay on U251 CNS was > 100 µM in each case.

In the case of `Cn1cc(C2=C(c3c(S(C)=O)n(C)c4ccccc34)C(=O)NC2=O)c2ccccc21` (centres undefined), the GI50 is 9.24 µM in the assay with A549 NSCLC; 7.38 µM in the assay with HCT-15 colon; 8.89 µM with K-562 leukemia; 8.04 µM with NCI-H226 lung; 16.1 µM in the assay with OVCAR-4 ovarian; > 25 µM with OVCAR-5 ovarian. The GI50 was 6.96 µM in the assay with SK-MEL-5 melanoma, 25 µM in the assay on SNB-19 CNS, 5.8 µM with SNB-75 CNS and 8.64 µM in the assay on U251 CNS. In addition, the TGI in the assay on A549 NSCLC, in the assay with HCT-15 colon, in the assay on K-562 leukemia, with NCI-H226 lung, in the assay with OVCAR-4 ovarian and in the assay with OVCAR-5 ovarian was > 25 µM each time. For the same compound, the TGI is > 25 µM with SK-MEL-5 melanoma, > 25 µM with SNB-19 CNS, 22.3 µM in the assay on SNB-75 CNS and > 25 µM with U251 CNS.
